Biological target: T1, human BKαβ1 channels (Homo sapiens, UniProt Q12791)
T1 construct: expressed in transfected cells; host or cells: CHO cells (G418 and hygromycin selection)
Assay: BK current in CHO cells expressing human BKαβ1 (PatchXpress whole-cell patch clamp), EC100
Format: cell-based
Conditions: drug concentration causing 100% increase of BK current
Experimental: Methods for Testing Compounds on Human BKαβ1 Channels Expressed Cho Cells
CHO cells expressing human BKαβ1 were cultured in T75 or 6 well cell culture cluster. Medium: DMEM/F12+10% FBS+0.5 mg/mL G418/genetecin+0.1 mg/mL Hygromycin. Split cells every 3-4 days at 80-90% confluence. Use cells for experiments 60-72 hrs after re-passage and at ˜90% confluence.
Trypsin solution (0.05% Trypsin+0.1% EDTA), Ca^2+ free PBS and culture medium were warmed to 37° C. Inspect the T75 flask for cell confluence. Remove culture medium and add warm Ca^2+ free PBS to wash cells. Remove Ca^2+ free PBS and add warm Trypsin solution. Put the T75 flask back to 37° C. incubator for about 4.5 minutes. Stop Trypsin activity by adding culture medium. Spin the cells down. Suspend cells in 120-160 μL external solution for BK current recording and use the cells as soon as possible.
PatchXpress Sealchip 16 electrodes (AVIVA Biosciences) and PatchXpress 7000A (Axon Instruments, Inc) were used for BK current recording. Flat bottom 1.5 mL glass vial (HiPep Laboratories) were used for containing external solutions (±compounds). The holes in the sealchip (equivalent to patch electrode) had resistance about 1.5 MΩ. Cell membrane capacitance was compensated and access resistance was also compensated by 40%. Voltage-clamp protocol: Holding voltage=0 mV. Record BK current during 200-ms steps between +80 to +120 mV in 10 mV increments and 2 sec inter-pulse interval. On-line digital leak subtraction was performed by a P/−4 procedure. After whole-cell configuration was established, 2 minute was used to optimize access resistance. Then the chamber was washed with control bath solution for 1 minute to remove excessive cells. Control bath solution was added with robotic pipette and control BK current was recorded after 1 minute equilibrium time. For each drug concentration, 45 μL drug solution was added three times with “suction before adding” mode which left old solution. For each drug addition, 1 minute equilibrium time was given. BK current was measured at each drug concentrations (usually within 3.5 minutes after first drug addition). Calculate % change of BK current at the voltage step when the control BK current first exceeding 200 pA. If the control BK current was less than 200 pA at 120 mV, the cell was not used. % changes were calculated as 100*(Id−Ic)/Ic, where Id was the current amplitude in the presence of drug and Ic was the control current amplitude.
EC100 was defined as the drug concentration causing 100% increase of BK current calculated by the method described above. EC100 was determined by the data points just below and above 100%. % Increase of BK current was plotted against log [drug concentration]. A straight line connected two data points flanking 100%. From this straight line, the concentration corresponding to 100% increase of BK current was determined as EC100.
Compounds were dissolved in DMSO to make 10 mM stock solutions. Subsequent dilutions were made with external solution. The testing drug concentrations were 0.1, 0.3, 1, 3 and 10 μM depending on the potency of compounds. The highest DMSO concentration was 0.1%. External solution (in mM): 140 NaCl, 4 KCl, 1 MgCl2, 2 CaCl2, 10 Glucose, 10 HEPES; pH=7.4 with NaOH. Internal solution (in mM): 140 KCl, 5 EGTA, 1 MgCl2, 5 MgATP, 0.2 CaCl2, 5 HEPES; pH=7.2 with KOH.

T1 sequence (Q12791 whole entry): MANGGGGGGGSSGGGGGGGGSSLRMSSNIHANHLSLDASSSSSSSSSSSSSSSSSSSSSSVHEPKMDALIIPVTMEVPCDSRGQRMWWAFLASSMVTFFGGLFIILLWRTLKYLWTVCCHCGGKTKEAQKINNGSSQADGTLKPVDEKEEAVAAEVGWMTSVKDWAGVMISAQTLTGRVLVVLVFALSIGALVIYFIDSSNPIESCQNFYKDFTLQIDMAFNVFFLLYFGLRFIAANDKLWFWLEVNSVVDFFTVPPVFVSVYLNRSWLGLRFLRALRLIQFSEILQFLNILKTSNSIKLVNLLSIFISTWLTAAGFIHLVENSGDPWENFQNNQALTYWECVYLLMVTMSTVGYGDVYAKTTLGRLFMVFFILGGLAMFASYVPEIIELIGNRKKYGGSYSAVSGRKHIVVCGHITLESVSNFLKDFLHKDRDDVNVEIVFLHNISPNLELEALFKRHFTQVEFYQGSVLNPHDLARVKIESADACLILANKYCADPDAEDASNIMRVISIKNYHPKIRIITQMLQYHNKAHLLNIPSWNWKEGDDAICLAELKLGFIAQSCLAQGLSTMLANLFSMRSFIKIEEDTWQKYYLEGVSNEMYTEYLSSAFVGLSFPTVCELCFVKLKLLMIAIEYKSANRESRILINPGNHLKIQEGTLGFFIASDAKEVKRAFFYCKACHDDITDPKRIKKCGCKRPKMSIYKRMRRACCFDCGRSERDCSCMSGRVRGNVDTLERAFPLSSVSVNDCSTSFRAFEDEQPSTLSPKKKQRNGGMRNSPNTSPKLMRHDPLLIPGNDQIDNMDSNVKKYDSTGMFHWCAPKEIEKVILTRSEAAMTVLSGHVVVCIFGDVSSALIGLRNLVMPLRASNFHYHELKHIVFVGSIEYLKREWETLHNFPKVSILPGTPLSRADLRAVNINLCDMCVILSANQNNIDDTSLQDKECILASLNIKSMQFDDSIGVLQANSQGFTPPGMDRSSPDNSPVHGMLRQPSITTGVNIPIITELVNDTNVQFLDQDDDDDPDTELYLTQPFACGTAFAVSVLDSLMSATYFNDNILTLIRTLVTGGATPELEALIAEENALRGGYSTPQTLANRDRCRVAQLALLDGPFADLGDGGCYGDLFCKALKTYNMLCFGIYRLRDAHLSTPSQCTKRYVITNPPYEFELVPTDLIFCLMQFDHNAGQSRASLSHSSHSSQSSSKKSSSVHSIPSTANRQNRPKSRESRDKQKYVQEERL
T1 sequence (Q16558 whole entry partner): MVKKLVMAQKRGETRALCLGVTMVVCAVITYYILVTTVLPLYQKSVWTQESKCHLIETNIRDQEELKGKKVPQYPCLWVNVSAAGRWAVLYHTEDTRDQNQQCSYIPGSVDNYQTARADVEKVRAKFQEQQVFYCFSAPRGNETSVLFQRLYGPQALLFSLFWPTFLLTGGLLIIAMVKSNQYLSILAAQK

Compound | EC100 [µM]
COC[C@@H]1CCCN1c1nc(OC(C)(C)C(=O)[O-])nc(-c2ccc(Cl)c(F)c2)n1.[Na+] [Example 6] | 1.61
COCC1CCN(c2cc(OC(C)(C)C(=O)[O-])nc(-c3ccc(Cl)c(F)c3)n2)CC1.[Na+] [Example 17] | 2.47
CCO[C@H]1CCCN(c2cc(OC3(C(=O)[O-])CC3)nc(-c3ccc(Cl)c(F)c3)n2)C1.[Na+] [Example 50] | 1.05
COC[C@@H]1CCCN1c1cc(OC2(C(=O)[O-])CC2)nc(-c2cccc(C(F)(F)F)c2)n1.[Na+] [Example 62] | 1.5
COC[C@@H]1CCCN1c1cc(OC2(C(=O)[O-])CC2)nc(-c2ccc(C(F)(F)F)cc2)n1.[Na+] [Example 63] | 1.28
CCOc1cccc(-c2nc(OC3(C(=O)[O-])CC3)cc(N3CCC[C@H]3COC)n2)c1.[Na+] [Example 65] | 1.43
COC[C@@H]1CCCN1c1cc(OC2(C(=O)[O-])CC2)nc(-c2ccc(Cl)s2)n1.[Na+] [Example 67] | 1.92
COCC1CCN(c2cc(OC3(C(=O)[O-])CC3)nc(-c3ccc(Cl)s3)n2)CC1.[Na+] [Example 69] | 2.56
CCCOC1CCN(c2cc(OC3(C(=O)[O-])CC3)nc(-c3ccc(F)cc3)n2)CC1.[Na+] [Example 78] | 1.41
COc1ccc(C(C)=O)cc1-c1cc(OC2(C(=O)[O-])CC2)nc(-c2ccc(Cl)c(F)c2)n1.[Na+] [Example 199] | 1.14
COc1cccc(-c2cc(OC(C)(C)C(=O)[O-])nc(-c3ccc(Cl)c(F)c3)c2)c1.[Na+] [Example 206] | 0.68
COc1ccccc1-c1nc(OC(C)(C)C(=O)[O-])nc(-c2ccc(Cl)c(F)c2)n1.[Na+] [Example 207] | 1.91
COc1cc(F)ccc1-c1cc(OC2(C(=O)[O-])CC2)nc(-c2ccc(F)c(F)c2)n1.[Na+] [Example 208] | 0.38
COCCOc1cc(F)ccc1-c1cc(OC2(C(=O)[O-])CC2)nc(-c2ccc(Cl)c(F)c2)n1.[Na+] [Example 209] | 0.27

More lines, now with the values ahead:

EC100 [µM] | Compound
1.91 | CC(C)(Oc1cc(N2CCC(C(C)(C)O)CC2)nc(-c2ccc(Cl)c(F)c2)n1)C(=O)[O-].[Na+] [Example 16]
1.75 | CCC(CC)(Oc1cc(N2CCC(OC)CC2)nc(-c2ccc(Cl)c(F)c2)n1)C(=O)[O-].[Na+] [Example 33]
0.59 | COC[C@@H]1CCCN1c1cc(OC2(C(=O)[O-])CC2)nc(-c2ccc(Cl)c(F)c2)n1.[Na+] [Example 36]
0.69 | COC[C@H]1CCCN1c1cc(OC2(C(=O)[O-])CC2)nc(-c2ccc(Cl)c(F)c2)n1.[Na+] [Example 37]
0.25 | COCC1CCN(c2cc(OC3(C(=O)[O-])CC3)nc(-c3ccc(Cl)c(F)c3)n2)CC1.[Na+] [Example 39]
0.33 | O=C([O-])C1(Oc2cc(NC3CCCC3)nc(-c3ccc(Cl)c(F)c3)n2)CC1.[Na+] [Example 47]
1.09 | CCOC1CCN(c2cc(OC3(C(=O)[O-])CC3)nc(-c3ccc(Cl)c(F)c3)n2)C1.[Na+] (stereo not drawn) [Example 51]
1.31 | COC[C@@H]1CCCN1c1cc(OC2(C(=O)[O-])CCCC2)nc(-c2ccc(Cl)c(F)c2)n1.[Na+] [Example 54]
0.36 | CC(C)(Oc1cc(-c2ccc(F)cc2)nc(-c2ccc(Cl)c(F)c2)n1)C(=O)[O-].[Na+] [Example 474]
1.83 | COCc1ccc(-c2cc(OC(C)(C)C(=O)[O-])nc(-c3ccc(Cl)c(F)c3)n2)cc1.[Na+] [Example 485]
1.38 | COc1nc(-c2cc(OC(C)(C)C(=O)[O-])nc(-c3ccc(Cl)c(F)c3)n2)cs1.[Na+] [Example 506]
0.14 | O=C([O-])C1(Oc2cc(-c3ccc(F)cc3)nc(-c3ccc(Cl)c(F)c3)n2)CC1.[Na+] [Example 512]
0.1 | COc1ccc(-c2cc(OC3(C(=O)[O-])CC3)nc(-c3ccc(Cl)c(F)c3)n2)cc1F.[Na+] [Example 518]

— patent US8575338B2, “Pyrimidine, pyridine and triazine derivatives as maxi-K channel openers” (Mitsubishi Tanabe Pharma Corporation, priority 2008, dated 2013)
